Test results reported in article PMC9814838, “The orphan nuclear receptor Nurr1 is responsive to non-steroidal anti-inflammatory drugs” (Communications Chemistry, 2020).
No end group written: not given here. fluorescein = fluorescein label on the N-terminus

Key:
[1] = molecular target: T1, Nurr1 (Homo sapiens, UniProt P43354); test: Gal4-Nurr1 hybrid reporter gene assay in HEK293T cells; assay type: cell-based; conditions: primary screen, n ≥ 2, ^# not significant vs VP16 control
T1 construct: Nurr1 (uniprot entry: hNURR1–P43354, residues 360–598); expressed in transfected cells; host or cells: HEK293T

[2] = molecular target: T2, Nur77 (Homo sapiens, UniProt P22736); test: Gal4-Nur77 hybrid reporter gene assay in HEK293T cells; assay type: cell-based; conditions: for Nur77 activity 10μM (mean fold activation) / Nur77 activity 30μM (mean fold activation): primary screen, n ≥ 2, ^# not significant vs VP16 control
T2 construct: Nur77 (uniprot entry: hNUR77–P22736, residues 358–598); expressed in transfected cells; host or cells: HEK293T

[3] = molecular target: T3, NOR1 (Homo sapiens, UniProt Q92570); test: Gal4-NOR1 hybrid reporter gene assay in HEK293T cells; assay type: cell-based; conditions: for Nor1 activity 10μM (mean fold activation) / Nor1 activity 30μM (mean fold activation): primary screen, n ≥ 2, ^# not significant vs VP16 control
T3 construct: NOR1 (isoform alpha; uniprot entry: hNOR1–Q92570-1, residues 393–626); expressed in transfected cells; host or cells: HEK293T
T3 sequence (Q92570 393-626): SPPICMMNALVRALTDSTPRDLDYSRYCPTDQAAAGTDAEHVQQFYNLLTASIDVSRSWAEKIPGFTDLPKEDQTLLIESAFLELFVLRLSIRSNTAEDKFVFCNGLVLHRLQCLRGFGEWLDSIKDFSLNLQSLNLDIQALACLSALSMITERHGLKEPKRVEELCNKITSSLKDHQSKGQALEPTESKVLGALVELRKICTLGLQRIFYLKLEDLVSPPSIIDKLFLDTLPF

[4] = molecular target: T4, NBRE: Nurr1 monomer (Homo sapiens, UniProt P43354); test: Full-length Nurr1 reporter gene assay on NBRE response element; assay type: cell-based; conditions: mean ± SD
T4 construct: the activity of full-length human Nurr1 in cellular settings; host or cells: HEK293T

[5] = molecular target: T5, NurRE: Nurr1 homodimer (Homo sapiens, UniProt P43354); test: Full-length Nurr1 reporter gene assay on NurRE response element; assay type: cell-based; conditions: mean ± SD
T5 construct: the activity of full-length human Nurr1 in cellular settings; host or cells: HEK293T

[6] = molecular target: T6, DR5: Nurr1–RXRα heterodimer (Homo sapiens, UniProt P43354); test: Full-length Nurr1 reporter gene assay on DR5 response element; assay type: cell-based; conditions: mean ± SD
T6 construct: the activity of full-length human Nurr1 in cellular settings; host or cells: HEK293T

[7] = molecular target: T7, Nurr1 LBD homodimer (Homo sapiens, UniProt P43354); test: Nurr1 homodimerization HTRF (GFP-Nurr1 LBD vs Tb-labeled Nurr1 LBD); assay type: biochemical; conditions: cell-free; ligand 100 µM
T7 construct: Nurr1 (uniprot entry: P43354-1, residues 364–598); MBP-Asn10 linker (N, cleaved yes); His8-Tag (N, cleaved yes); His10-Tag (N, cleaved yes); made in house; host or cells: E. coli T7 express (with pGro7)
Procedure: Strength and modulation of the formation of the heterodimer composed of the LBDs of Nurr1 and RXRα was investigated by titration of GFP-RXRα LBD against a fixed concentration of Nurr1 LBD. Assay solutions were prepared in HTRF assay buffer supplemented with 0.1% (w/v) CHAPS as well as 1% DMSO with test compounds at 100 µM or DMSO alone as negative control. […] Free GFP was added to keep the total GFP content stable at 4 µM throughout the entire series in order to suppress artefacts from changes in degree of diffusion enhanced FRET. Samples were equilibrated at RT for 2 h before FI520 and FI620 were recorded after excitation at 340 nm, and the HTRF signal was calculated as described above.

[8] = molecular target: T8, Nurr1–NCoR-1 interaction (Homo sapiens, UniProt P43354); test: Nurr1–NCoR-1 interaction HTRF (GFP-Nurr1 LBD titrated against Tb-labeled NCoR-1); assay type: biochemical; conditions: cell-free; ligand fixed at 100 µM
T8 construct: Nurr1 (uniprot entry: P43354-1, residues 364–598); His10-Tag (N, cleaved yes); made in house; host or cells: E. coli T7 express (with pGro7)
Procedure: Since ligand concentration was fixed in this setting, interference with the HTRF system is less prone to generate potential artifacts.
To maintain a constant GFP concentration, free GFP protein was added to the dilution series. The experiments were performed in HTRF assay buffer (150 mM KF, 25 mM HEPES pH 7.5 (KOH), 5% (w/v) Glycerol, supplemented with 0.1% (w/v) CHAPS and 5 mM DTT) with 1% DMSO in an assay volume of 20 µl. After 1 h incubation at RT, fluorescence intensities after excitation at 340 nm were recorded at 520 nm for GFP acceptor fluorescence and 620 nm for Tb-SA donor fluorescence and the HTRF signal was calculated as described above.

[9] = molecular target: T9, Gal4-VP16 (Human herpesvirus 1, UniProt P06492); assay type: cell-based; conditions: n ≥ 4
T9 construct: host or cells: HEK293T

[10] = molecular target: T10, biotinylated recombinant Nurr1 LBD (Tb-labeled through Tb-cryptate streptavidin) (human, UniProt P43354-1 364-598, biotin on the lysine residue in the Avi-Tag); test: AlphaScreen or HTRF; co-regulator recruitment: biotinylated Nurr1 LBD 3 nM on Tb-SA 3 nM (donor), fluorescein-labeled peptide 100 nM (acceptor); HTRF assay buffer (25 mM HEPES pH 7.5, 150 mM KF, 10% glycerol, 5 mM DTT) with 0.1% CHAPS; 1% DMSO alone or with AQ, CQ, MFA, parecoxib or oxaprozin at 100 µM (dose-response too); 2 h at RT; conditions: both partners purified
T10 construct: In the assays coupled to terbium cryptate streptavidin conjugate (Tb-SA) as FRET donor; also called Tb-labeled Nurr1 LBD; Tb-cryptate-labeled Nurr1 LBD; source: E. coli T7 express with pGro7, purified (IMAC, TEV cleavage, amylose resin, birA biotinylation, monomeric avidin, SEC); not shown: MBP, N-terminal, cleaved; His8, N-terminal, cleaved; Avi-Tag, N-terminal, kept

[11] = compared to 0.1% DMSO, mean ± SD
[12] = full-length human Nurr1, HEK293T

T2 sequence (P22736 358-598): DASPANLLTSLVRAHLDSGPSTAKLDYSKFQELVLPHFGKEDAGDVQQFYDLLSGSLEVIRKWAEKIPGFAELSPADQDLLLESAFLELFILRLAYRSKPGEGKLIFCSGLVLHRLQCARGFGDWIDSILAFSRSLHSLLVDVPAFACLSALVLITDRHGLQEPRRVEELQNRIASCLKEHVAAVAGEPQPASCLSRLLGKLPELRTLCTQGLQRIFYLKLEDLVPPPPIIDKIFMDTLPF
T1 sequence (P43354 360-598): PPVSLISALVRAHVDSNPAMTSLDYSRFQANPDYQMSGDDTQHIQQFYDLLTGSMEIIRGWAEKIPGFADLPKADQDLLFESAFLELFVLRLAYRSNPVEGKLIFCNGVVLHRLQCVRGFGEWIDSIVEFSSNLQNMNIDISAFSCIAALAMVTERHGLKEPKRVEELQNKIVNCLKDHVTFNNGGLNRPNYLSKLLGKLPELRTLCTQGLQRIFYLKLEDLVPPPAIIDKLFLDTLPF
T4 sequence (P43354 whole entry): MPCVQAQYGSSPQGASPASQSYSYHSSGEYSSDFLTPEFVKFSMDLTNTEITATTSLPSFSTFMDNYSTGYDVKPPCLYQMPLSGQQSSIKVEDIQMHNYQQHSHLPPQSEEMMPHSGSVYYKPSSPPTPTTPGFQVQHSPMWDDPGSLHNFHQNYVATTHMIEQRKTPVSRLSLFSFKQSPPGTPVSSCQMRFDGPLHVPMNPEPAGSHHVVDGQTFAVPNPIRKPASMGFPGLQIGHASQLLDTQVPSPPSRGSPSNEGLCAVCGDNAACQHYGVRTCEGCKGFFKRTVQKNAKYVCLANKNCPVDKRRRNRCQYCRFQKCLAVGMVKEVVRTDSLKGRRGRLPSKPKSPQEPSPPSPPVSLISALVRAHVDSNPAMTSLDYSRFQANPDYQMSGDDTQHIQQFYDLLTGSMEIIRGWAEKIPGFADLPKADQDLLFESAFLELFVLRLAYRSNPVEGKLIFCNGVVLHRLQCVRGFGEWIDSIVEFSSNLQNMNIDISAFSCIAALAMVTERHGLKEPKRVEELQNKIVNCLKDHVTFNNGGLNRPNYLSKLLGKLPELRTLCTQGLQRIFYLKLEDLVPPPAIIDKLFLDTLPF
T5 sequence (P43354 whole entry): as above
T6 sequence (P43354 whole entry, one chain of several): as the sequence (P43354 whole entry) above
T8 sequence (P43354 364-598): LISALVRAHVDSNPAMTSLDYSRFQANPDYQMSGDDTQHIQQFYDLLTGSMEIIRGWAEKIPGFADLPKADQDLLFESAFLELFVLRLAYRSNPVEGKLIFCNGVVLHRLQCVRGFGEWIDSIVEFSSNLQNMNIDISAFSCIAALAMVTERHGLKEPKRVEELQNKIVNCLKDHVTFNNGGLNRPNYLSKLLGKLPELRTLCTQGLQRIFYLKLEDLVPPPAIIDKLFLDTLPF
T7 sequence (P43354 364-598): as above

Molecule: CC(C)Cc1ccc(C(C)C(=O)O)cc1 (stereo not drawn) [ibuprofen]
- Nurr1 activity 10μM (mean fold activation) [1]: 1.02 fold
- Nurr1 activity 30μM (mean fold activation) [1]: 0.90 fold
- Nur77 activity 10μM (mean fold activation) [2]: 0.99 fold
- Nur77 activity 30μM (mean fold activation) [2]: 0.89 fold
- Nor1 activity 10μM (mean fold activation) [3]: 0.95 fold
- Nor1 activity 30μM (mean fold activation) [3]: 0.96 fold

Molecule: CC(C(=O)O)c1ccc2c(c1)[nH]c1ccc(Cl)cc12 (stereo not drawn) [carprofen]
- Nurr1 activity 10μM (mean fold activation) [1]: 1.10 fold
- Nurr1 activity 30μM (mean fold activation) [1]: 1.19 fold
- Nur77 activity 10μM (mean fold activation) [2]: 1.08 fold
- Nur77 activity 30μM (mean fold activation) [2]: 0.95 fold
- Nor1 activity 10μM (mean fold activation) [3]: 1.17 fold
- Nor1 activity 30μM (mean fold activation) [3]: 0.99 fold

Molecule: Cc1cc(NC(=O)C2=C(O)c3ccccc3S(=O)(=O)N2C)no1 [isoxicam]
- Nurr1 activity 10μM (mean fold activation) [1]: 0.98 fold
- Nurr1 activity 30μM (mean fold activation) [1]: 0.90 fold
- Nur77 activity 10μM (mean fold activation) [2]: 0.96 fold
- Nur77 activity 30μM (mean fold activation) [2]: 0.80 fold
- Nor1 activity 10μM (mean fold activation) [3]: 1.02 fold
- Nor1 activity 30μM (mean fold activation) [3]: 0.87 fold

Molecule: CCCCC1C(=O)N(c2ccccc2)N(c2ccccc2)C1=O [phenylbutazone]
- Nurr1 activity 10μM (mean fold activation) [1]: 0.94 fold
- Nurr1 activity 30μM (mean fold activation) [1]: 1.04 fold
- Nur77 activity 10μM (mean fold activation) [2]: 0.83 fold
- Nur77 activity 30μM (mean fold activation) [2]: 0.81 fold
- Nor1 activity 10μM (mean fold activation) [3]: 0.94 fold
- Nor1 activity 30μM (mean fold activation) [3]: 1.02 fold

Molecule: CCC(=O)NS(=O)(=O)c1ccc(-c2c(-c3ccccc3)noc2C)cc1 [parecoxib]
- IC50 ([2]; HEK293T, mean ± SD, n≥3): 23.7 ± 0.2 µM
- Nur77 min./max. activation [2, 11]: 0.1 ± 0.0
- IC50 ([3]; HEK293T, mean ± SD, n≥3, read-out: NOR1 IC50): 25 ± 4 µM
- NOR1 min./max. activation [3, 11]: 0.22 ± 0.05
- IC50 [4, 12]: 15 µM
- NBRE: Nurr1 monomer maximum/minimum activation [4]: 0.41 ± 0.05 fold
- IC50 [5, 12]: 21 µM
- NurRE: Nurr1 homodimer maximum/minimum activation [5]: 0.4 ± 0.1 fold
- IC50 ([6]; full-length human Nurr1 and RXRα overexpressed, HEK293T): 20 µM
- DR5: Nurr1–RXRα heterodimer maximum/minimum activation [6]: 0.5 ± 0.1 fold
- Homodimerization (effect of ligand) [7]: diminished Nurr1 dimer formation
- NCoR-1 affinity (effect of ligand) [8]: Decreases affinity
- Control experiments on Gal4-VP16 (non-specific reporter effects) [9]: no non-specific reporter suppression

B1: nuclear receptor interacting protein 1 (NRIP1, also termed RIP140, interaction motif L6) peptide, fluorescein-labeled (peptide)
peptide: fluorescein-SHQKVTLLQLLLGHKNEEN
notes: also called RIP140L6; source: bought: ThermoFisher Scientific (Life Technologies)
- binding result [10]: binds

B2: D22 peptide, fluorescein-labeled (peptide)
peptide: fluorescein-LPYEGSLLLKLLRAPVEEV
notes: source: bought: ThermoFisher Scientific (Life Technologies)
- binding result [10]: binds

B3: nuclear receptor co-repressor (NCOR) ID1 peptide, fluorescein-labeled (peptide)
peptide: fluorescein-RTHRLITLADHICQIITQDFARN
notes: also called NCoR-1; source: bought: ThermoFisher Scientific (Life Technologies)
- binding result [10]: binds

B4: silencing mediator for retinoid and thyroid hormone receptor (SMRT) ID2 peptide, fluorescein-labeled (peptide)
peptide: fluorescein-HASTNMGLEAIIRKALMGKYDQW
notes: also called NCoR-2; source: bought: ThermoFisher Scientific (Life Technologies)
- binding result [10]: binds

B5: nuclear receptor co-activator 6 (NCoA6, also termed PRIPRAP250) peptide, fluorescein-labeled (peptide)
peptide: fluorescein-VTLTSPLLVNLLQSDISAG
notes: also called TRBP; source: bought: ThermoFisher Scientific (Life Technologies)
- binding result [10]: binds
